Results from paper PMC9356076, “An Integrated Pharmacological Counselling Approach to Guide Decision-Making in the Treatment with CDK4/6 Inhibitors for Metastatic Breast Cancer” (Frontiers in Pharmacology, 2022).

Key:
P-glycoprotein (P-gp) = conditions: background statement, no reference given; cited from earlier work
[1] = system: breast cancer resistance protein (BCRP); conditions: background statement, no reference given; cited from earlier work
[2] = cited from earlier work
clinical = conditions: human
Description: (§2) Plasma was obtained by centrifugation at 2,450 g for 10 min at 4°C of whole blood EDTA tubes and stored at −80°C until analysis. Patients’ samples were analyzed with a newly developed LC-MS/MS method as previously reported ([Posocco et al., 2020]). Drug concentration was usually evaluated at specific time points, which allowed the evaluation of Cmin or Cmax at steady state. […] Last administration (self-reported) and sampling times were also recorded. According to the literature ([Verheijen et al., 2017]), the average exposure of the approved efficacious dose was used as a proxy of target Cmin and will be referred to as “target Cmin” in this article.
(§3) Descriptive statistics were used to present and analyze the TDM data. The mean population Cmin value reported in the literature for patients treated with the standard dose was used to evaluate the TDM target, and the ±20% intervals were calculated. This interval was based on acceptable variability of analytical data according to incurred sample reanalysis criteria ([FDA, 2018]; [EMA, 2022]). Patients who fell outside this range were considered to be potentially under or overexposed to the drugs.

[3] = system: HR-positive/HER2-negative MBC patients; assay: Adverse drug reactions in treated patients, graded by CTCAE Version 5.0; assay type: in vivo, human; conditions: palbociclib 100 mg/day
Description: (§1) Our counselling service was already available for other KI used in oncology as imatinib, sorafenib, regorafenib, sunitinib, lenvatinib, and three PARP inhibitors: olaparib, niraparib, and rucaparib. Written informed consent was obtained for pharmacogenetic and TDM analyses and the publication of the here presented reports. Any potentially identifying information was omitted. Data concerning age, disease, stage, and molecular profiling, treatment regimen and setting, drug dose, adverse drug reactions, and coadministered treatments were retrieved from the electronic medical record upon patients’ reporting by the prescribing medical oncologist. Toxicities were retrospectively collected through clinical records revision and graded according to Common Terminology Criteria for Adverse Events (CTCAE) Version 5.0.

[4] = system: HR-positive/HER2-negative MBC patients; assay: Patient's clinical outcome of CDKi treatment for metastatic breast cancer; assay type: in vivo, human
Description: as §1

[5] = Therapeutic drug monitoring: steady-state plasma concentration in patients by LC-MS/MS
Description: as §2, §3

UGT = conditions: background statement, no reference given; cited from earlier work

CCN1CCN(Cc2ccc(Nc3ncc(F)c(-c4cc(F)c5nc(C)n(C(C)C)c5c4)n3)nc2)CC1 [abemaciclib]
substrate of the efflux transporter P-gp (P-glycoprotein (P-gp)): substrates | substrate of / transport by BCRP [1]: substrates | proposed target Cmin ([2]; abemaciclib, MONARCH 3 patients, 132 mg/twice day, ref US Food and Drug Administration, 2017b): 181 ng/mL

N#Cc1ccc(C(c2ccc(C#N)cc2)n2cncn2)cc1 [letrozole]
proposed Cmin target value ([2]; letrozole, dedicated exposure-efficacy studies, ref FDA, 2021a): 85.6 ng/mL

CC(=O)c1c(C)c2cnc(Nc3ccc(N4CCNCC4)cn3)nc2n(C2CCCC2)c1=O [palbociclib]
concentration at 24 h (clinical; plasma, oral): 49 to 73 ng/mL | neutropenia grade after dose reduction ([3]; Case II): grade 4 | neutropenia grade after dose reduction ([3]; Case V): grade 3 | Patient's clinical outcome ([4]; Case I, palbociclib 75 mg/day + fulvestrant, II line): systemic PD | Patient's clinical outcome ([4]; Case I, palbociclib 75 mg/day + fulvestrant, II line, listed as Palbociclib): Palbociclib treatment failure due to disease progression | Cmin (minimum plasma concentration) ([5]; Case I, palbociclib 75 mg/day + fulvestrant, steady state, 24 h after last intake): 27.3 ng/ml (palbociclib 75 mg/day) | Cmin ([5]; Case II, after dose reduction to palbociclib 100 mg/day): 62.3 ng/mL | concentration at 24 h ([5]; human, plasma, oral, 100 mg/day): 62.3 ng/mL

CN(C)C(=O)c1cc2cnc(Nc3ccc(N4CCNCC4)cn3)nc2n1C1CCCC1 [ribociclib]
concentration at 24 h (clinical; in vivo): 586 to 878 ng/mL | substrate of the efflux transporter P-gp (P-glycoprotein (P-gp)): substrate | substrate of / transport by BCRP [1]: no noticeable transport | glucuronidation reaction by UGT (UGT): undergo a glucuronidation reaction | Patient's clinical outcome ([4]; Case III, ribociclib 600 mg/day reduced to 400 mg and then 200 mg, I line): disease progression | Patient's clinical outcome ([4]; Case III, ribociclib 600 mg/day reduced to 400 mg and then 200 mg, I line, listed as Ribociclib): The dose of ribociclib was reduced after more than 1 year of intermittent treatment due to toxicity. Ribociclib treatment ultimately failed | reported mean Cmin (target population Cmin) ([2]; ribociclib standard dose 600 mg/day, ref FDA, 2021b): 732 ng/mL | mean steady-state population Cmax ([2]; ribociclib): 2,237 ng/ml
